Like-named read-outs stand apart in the source and are kept apart here.

For this assay, the target named is Human factor D (Homo sapiens (Human), UniProt P00746). As to the kind of experiment: Human Factor D Assay. It counts as biochemical.
Setting [1] is: human factor D 80 nM, substrate Z-L-Lys-SBz1 and DTNB 100 μM each, pH 7.5, read-out: IC50.

Chain of Human factor D (P00746 26-253): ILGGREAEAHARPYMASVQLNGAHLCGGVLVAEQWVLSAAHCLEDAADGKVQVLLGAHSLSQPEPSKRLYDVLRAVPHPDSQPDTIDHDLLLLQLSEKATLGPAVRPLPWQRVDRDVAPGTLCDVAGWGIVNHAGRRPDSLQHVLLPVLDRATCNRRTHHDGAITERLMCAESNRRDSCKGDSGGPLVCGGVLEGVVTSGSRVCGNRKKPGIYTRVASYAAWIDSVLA
Experimental: Human factor D (purified from human serum, Complement Technology, Inc.) at 80 nM final concentration is incubated with test compound at various concentrations for 5 minutes at room temperature in 50 mM Tris, 1M NaCl, pH 7.5. A synthetic substrate Z-L-Lys-SBz1 and DTNB (Ellman's reagent) are added to final concentrations of 100 μM each. The increase in color is recorded at OD405 nm in a microplate in kinetic mode over 30 minutes with 30 second time points in a spectrofluorimeter. IC50 values are calculated by non-linear regression from the percentage of inhibition of complement factor D activity as a function of test compound concentration.

Turning to `CC(=O)c1cn(CC(=O)N2C[C@H](F)C[C@H]2C(=O)Nc2cc(C)nn2-c2ccccc2F)c2ccc(Nc3cncnc3)cc12` [Compound 57, (2S,4R)-1-(2-(3-acetyl-5-(pyrimidin-5-ylamino)-1H-indol-1-yl)acetyl)-4-fluoro-N-(1-(2-fluorophenyl)-3-methyl-1H-pyrazol-5-yl)pyrrolidine-2-carboxamide], the IC50 (commonly the concentration that inhibits the measured activity by half) under setting [1] was below 1 µM.
With `CC(=O)c1cn(CC(=O)N2C[C@H](F)C[C@H]2C(=O)Nc2cccc(Cl)c2-n2cncn2)c2ccc(Nc3cncnc3)cc12` [Compound 37, (2S,4R)-1-(2-(3-acetyl-5-(pyrimidin-5-ylamino)-1H-indol-1-yl)acetyl)-N-(3-chloro-2-(1H-1,2,4-triazol-1-yl)phenyl)-4-fluoropyrrolidine-2-carboxamide], the IC50 was in the range of 1 to 10 µM.
Same read-out and setting: the result for `CC(=O)c1cn(CC(=O)N2C[C@H](F)C[C@H]2C(=O)Nc2nc(-c3c(C)nc4sccn34)cs2)c2ccc(Nc3cncnc3)cc12` [Compound 49, (2S,4R)-1-(2-(3-acetyl-5-(pyrimidin-5-ylamino)-1H-indol-1-yl)acetyl)-4-fluoro-N-(4-(6-methylimidazo[2,1-b]thiazol-5-yl)thiazol-2-yl)pyrrolidine-2-carboxamide] reads 1 to 10 µM.
Take `CC(=O)c1cn(CC(=O)N2C[C@H](F)C[C@H]2C(=O)NC2CCCc3nc(-c4ccc(F)cc4)sc32)c2ccc(Nc3cncnc3)cc12` (stereo partly drawn) [Compound 28, (2S,4R)-1-(2-(3-acetyl-5-(pyrimidin-5-ylamino)-1H-indol-1-yl)acetyl)-4-fluoro-N-(2-(4-fluorophenyl)-4,5,6,7-tetrahydrobenzo[d]thiazol-7-yl)pyrrolidine-2-carboxamide]: under setting [1], the IC50 was above 10 µM.
Same read-out and setting: for `CC(=O)c1cn(CC(=O)N2C[C@H](F)C[C@H]2C(=O)N[C@@H](CO)c2cccc(Cl)c2F)c2ccc(Nc3cncnc3)cc12` [Compound 8, (2S,4R)-1-(2-(3-acetyl-5-(pyrimidin-5-ylamino)-1H-indol-1-yl)acetyl)-N-((R)-1-(3-chloro-2-fluorophenyl)-2-hydroxyethyl)-4-fluoropyrrolidine-2-carboxamide] the value was below 1 µM.
On the same count and under the same terms, for `CC(=O)c1cn(CC(=O)N2C[C@H](F)C[C@H]2C(=O)Nc2nc(-c3ccc4c(c3)CCCC4)cs2)c2ccc(Nc3cncnc3)cc12` [Compound 50, (2S,4R)-1-(2-(3-acetyl-5-(pyrimidin-5-ylamino)-1H-indol-1-yl)acetyl)-4-fluoro-N-(4-(5,6,7,8-tetrahydronaphthalen-2-yl)thiazol-2-yl)pyrrolidine-2-carboxamide] the value was above 10 µM.
Consider `CC(=O)c1cn(CC(=O)N2C[C@H](F)C[C@H]2C(=O)Nc2c[nH]nc2-c2ccc(Cl)cc2Cl)c2ccc(Nc3cncnc3)cc12` [Compound 55, (2S,4R)-1-(2-(3-acetyl-5-(pyrimidin-5-ylamino)-1H-indol-1-yl)acetyl)-N-(3-(2,4-dichlorophenyl)-1H-pyrazol-4-yl)-4-fluoropyrrolidine-2-carboxamide], for which the IC50 was in the range of 1 to 10 µM.
Turning to `CC(=O)c1cn(C(=O)CN2C[C@H](F)C[C@H]2C(=O)Nc2nnc(-c3ccc(Cl)c(Cl)c3)s2)c2ccc(Nc3cncnc3)cc12` [Compound 39, (2S,4R)-1-(2-(3-acetyl-5-(pyrimidin-5-ylamino)-1H-indol-1-yl)-2-oxoethyl)-N-(5-(3,4-dichlorophenyl)-1,3,4-thiadiazol-2-yl)-4-fluoropyrrolidine-2-carboxamide], the IC50 under setting [1] is above 10 µM.
The molecule `CC(=O)c1cn(CC(=O)N2C[C@H](F)C[C@H]2C(=O)Nc2ccc(CN)cc2)c2ccc(Nc3cncnc3)cc12` [Compound 53, (2S,4R)-1-(2-(3-acetyl-5-(pyrimidin-5-ylamino)-1H-indol-1-yl)acetyl)-N-(4-(aminomethyl)phenyl)-4-fluoropyrrolidine-2-carboxamide] displayed an IC50 of 1 to 10 µM.
Take `CC(=O)c1cn(CC(=O)N2C[C@H](F)C[C@H]2C(=O)NCc2ccccn2)c2ccc(Nc3cncnc3)cc12` [Compound 17, (2S,4R)-1-(2-(3-acetyl-5-(pyrimidin-5-ylamino)-1H-indol-1-yl)acetyl)-4-fluoro-N-(pyridin-2-ylmethyl)pyrrolidine-2-carboxamide]: the IC50 under setting [1] was below 1 µM.
Same read-out and setting: the result for `NC(=O)c1nn(CC(=O)N2C[C@H](F)C[C@H]2C(=O)Nc2cccc(Cl)n2)c2ccc(Nc3cncnc3)cc12` [Compound 12, 1-(2-((2S,4R)-2-(6-chloropyridin-2-ylcarbamoyl)-4-fluoropyrrolidin-1-yl)-2-oxoethyl)-5-(pyrimidin-5-ylamino)-1H-indazole-3-carboxamide] reads below 1 µM.
Same read-out and setting: the result for `CC(=O)c1cn(CC(=O)N2C[C@H](F)C[C@H]2C(=O)NC2CCCN(c3cc(C)ccc3F)C2=O)c2ccc(Nc3cncnc3)cc12` (stereo partly drawn) [Compound 63, (2S,4R)-1-(2-(3-acetyl-5-(pyrimidin-5-ylamino)-1H-indol-1-yl)acetyl)-4-fluoro-N-(1-(2-fluoro-5-methylphenyl)-2-oxopiperidin-3-yl)pyrrolidine-2-carboxamide] reads below 1 µM.
In the case of `CC(=O)c1cn(CC(=O)N2C[C@H](F)C[C@H]2C(=O)N[C@H]2CCCC[C@@H]2O)c2ccc(Nc3cncnc3)cc12` [Compound 36, (2S,4R)-1-(2-(3-acetyl-5-(pyrimidin-5-ylamino)-1H-indol-1-yl)acetyl)-4-fluoro-N-((1S,2S)-2-hydroxycyclohexyl)pyr-rolidine-2-carboxamide], the IC50 lay within 1 to 10 µM.
The same measure, in the same setting: for `CC(=O)c1cn(CC(=O)N2C[C@H](F)C[C@H]2C(=O)Nc2ccccc2N2CCOC2=O)c2ccc(Nc3cncnc3)cc12` [Compound 40, (2S,4R)-1-(2-(3-acetyl-5-(pyrimidin-5-ylamino)-1H-indol-1-yl)acetyl)-4-fluoro-N-(2-(2-oxooxazolidin-3-yl)phenyl)pyrrolidine-2-carboxamide] the value was 1 to 10 µM.
Take `CC(=O)c1cn(CC(=O)N2C[C@H](F)C[C@H]2C(=O)NCc2cccc(Cl)c2F)c2cc(NS(=O)(=O)C(F)(F)F)ccc12` [Compound 2, (2S,4R)-1-(2-(3-acetyl-6-(trifluoromethylsulfon-amido)-1H-indol-1-yl)acetyl)-N-(3-chloro-2-fluorobenzyl)-4-fluoropyrrolidine-2-carboxamide]: the IC50 under setting [1] is below 1 µM.
Same read-out and setting: the result for `CC(=O)c1cn(CC(=O)N2C[C@H](F)C[C@H]2C(=O)Nc2cncc(Cl)n2)c2ccc(Nc3cncnc3)cc12` [Compound 33, (2S,4R)-1-(2-(3-acetyl-5-(pyrimidin-5-ylamino)-1H-indol-1-yl)acetyl)-N-(6-chloropyrazin-2-yl)-4-fluoropyrrolidine-2-carboxamide] reads below 1 µM; that for `CC(=O)c1cn(CC(=O)N2C[C@H](F)C[C@H]2C(=O)Nc2nc(-c3ccccc3Cl)ns2)c2ccc(Nc3cncnc3)cc12` [Compound 29, (2S,4R)-1-(2-(3-acetyl-5-(pyrimidin-5-ylamino)-1H-indol-1-yl)acetyl)-N-(3-(2-chlorophenyl)-1,2,4-thiadiazol-5-yl)-4-fluoropyrrolidine-2-carboxamide], below 1 µM; that for `CCN1Cc2ccc(NC(=O)[C@@H]3C[C@@H](F)CN3C(=O)Cn3cc(C(C)=O)c4cc(Nc5cncnc5)ccc43)cc2C1=O` [Compound 23, (2S,4R)-1-(2-(3-acetyl-5-(pyrimidin-5-ylamino)-1H-indol-1-yl)acetyl)-N-(2-ethyl-3-oxoisoindolin-5-yl)-4-fluoropyrrolidine-2-carboxamide], below 1 µM.

These data come from patent US9598446B2, “Amino compounds for treatment of complement mediated disorders” (priority 2014, dated 2017).
